Measurements as given in ChEMBL document CHEMBL3044680, “Synthesis, characterization, and antimicrobial studies of novel 1,3,4-thiadiazolium-5-thiolates” (2012).
In brackets after ≈: the same amount, converted by molar mass.

Experiments:
Format in all cases: functional
Pseudomonas aeruginosa [1] = assay: Antimicrobial activity against Pseudomonas aeruginosa after overnight incubation by broth dilution method
Escherichia coli [2] = assay: Antimicrobial activity against Escherichia coli after overnight incubation by broth dilution method
Bacillus subtilis [3] = assay: Antimicrobial activity against Bacillus subtilis after overnight incubation by broth dilution method
Staphylococcus aureus [4] = assay: Antimicrobial activity against Staphylococcus aureus after overnight incubation by broth dilution method
Pseudomonas aeruginosa [5] = assay: Antimicrobial activity against Pseudomonas aeruginosa at 200 ug/ml after 48 hr by cup-plate method; settings: read-out: IZ
Bacillus subtilis [6] = assay: Antimicrobial activity against Bacillus subtilis at 200 ug/ml after 48 hr by cup-plate method; settings: read-out: IZ
Escherichia coli [7] = assay: Antimicrobial activity against Escherichia coli at 200 ug/ml after 48 hr by cup-plate method; settings: read-out: IZ
Staphylococcus aureus [8] = assay: Antimicrobial activity against Staphylococcus aureus at 200 ug/ml after 48 hr by cup-plate method; settings: read-out: IZ

Structure (SMILES) | MIC (Pseudomonas aeruginosa [1]) [µg/mL] | MIC (Escherichia coli [2]) [µg/mL] | MIC (Bacillus subtilis [3]) [µg/mL] | MIC (Staphylococcus aureus [4]) [µg/mL] | zone of inhibition at 200 µg/mL (Pseudomonas aeruginosa [5]) [mm] | zone of inhibition at 200 µg/mL (Bacillus subtilis [6]) [mm] | zone of inhibition at 200 µg/mL (Escherichia coli [7]) [mm] | zone of inhibition at 200 µg/mL (Staphylococcus aureus [8]) [mm]
Cc1sc([S-])n[n+]1C(=O)c1ccc(Nc2nc(-c3ccccc3)nc3ccccc23)cc1 | 4 (≈ 8.78 µM) | 8 (≈ 17.6 µM) | 8 (≈ 17.6 µM) | 16 (≈ 35.1 µM) | 23 | 21 | 20 | 19
O=C(c1ccc(-n2c(-c3ccccc3)nc3ccccc3c2=O)cc1)[n+]1nc([S-])sc1-c1ccc(Cl)cc1 | 8 (≈ 14.5 µM) | 16 (≈ 28.9 µM) | 8 (≈ 14.5 µM) | 8 (≈ 14.5 µM) | 21 | 20 | 16 | 22
O=C(c1ccc(Nc2nc(-c3ccccc3)nc3ccccc23)cc1)[n+]1nc([S-])sc1-c1ccc([N+](=O)[O-])cc1 | 32 (≈ 56.9 µM) | 16 (≈ 28.4 µM) | 16 (≈ 28.4 µM) | 32 (≈ 56.9 µM) | 15 | 19 | 18 | 16
O=C(c1ccc(-n2c(-c3ccccc3)nc3ccccc3c2=O)cc1)[n+]1nc([S-])sc1-c1cc([N+](=O)[O-])ccc1Cl | 8 (≈ 13.4 µM) | 16 (≈ 26.8 µM) | 16 (≈ 26.8 µM) | 2 (≈ 3.34 µM) | 22 | 18 | 19 | 26
O=C(c1ccc(Nc2nc(-c3ccccc3)nc3ccccc23)cc1)[n+]1nc([S-])sc1-c1cccc([N+](=O)[O-])c1 | 8 (≈ 14.2 µM) | 16 (≈ 28.4 µM) | 32 (≈ 56.9 µM) | 8 (≈ 14.2 µM) | 22 | 16 | 20 | 21
O=C(O)c1cn(C2CC2)c2cc(N3CCNCC3)c(F)cc2c1=O [CIPROFLOXACIN] | – | – | 0.5 (≈ 1.51 µM) | 1 (≈ 3.02 µM) | 41 | 35 | 38 | 31
COc1ccc(-c2sc([S-])n[n+]2C(=O)c2ccc(-n3c(-c4ccccc4)nc4ccccc4c3=O)cc2)cc1[N+](=O)[O-] | 2 (≈ 3.37 µM) | 32 (≈ 53.9 µM) | 32 (≈ 53.9 µM) | 16 (≈ 27 µM) | 27 | 16 | 15 | 19
O=C(c1ccc(Nc2nc(-c3ccccc3)nc3ccccc23)cc1)[n+]1nc([S-])sc1-c1cc([N+](=O)[O-])ccc1Cl | 2 (≈ 3.35 µM) | 4 (≈ 6.7 µM) | 8 (≈ 13.4 µM) | 4 (≈ 6.7 µM) | 26 | 22 | 24 | 23
O=C(c1ccc(Nc2nc(-c3ccccc3)nc3ccccc23)cc1)[n+]1nc([S-])sc1-c1ccccc1 | 4 (≈ 7.73 µM) | 8 (≈ 15.5 µM) | 16 (≈ 30.9 µM) | 16 (≈ 30.9 µM) | 24 | 18 | 20 | 19
O=C(c1ccc(-n2c(-c3ccccc3)nc3ccccc3c2=O)cc1)[n+]1nc([S-])sc1-c1ccc([N+](=O)[O-])cc1 | 8 (≈ 14.2 µM) | 4 (≈ 7.1 µM) | 4 (≈ 7.1 µM) | 8 (≈ 14.2 µM) | 22 | 24 | 23 | 20
O=C(c1ccc(Nc2nc(-c3ccccc3)nc3ccccc23)cc1)[n+]1nc([S-])sc1-c1ccc(Cl)cc1 | 4 (≈ 7.25 µM) | 8 (≈ 14.5 µM) | 8 (≈ 14.5 µM) | 16 (≈ 29 µM) | 24 | 21 | 22 | 19
O=C(c1ccc(-n2c(-c3ccccc3)nc3ccccc3c2=O)cc1)[n+]1nc([S-])sc1-c1cccc([N+](=O)[O-])c1 | – | 64 (≈ 114 µM) | 64 (≈ 114 µM) | 64 (≈ 114 µM) | 10 | 15 | 13 | 11
O=C(c1ccc(-n2c(-c3ccccc3)nc3ccccc3c2=O)cc1)[n+]1nc([S-])sc1-c1ccc(Cl)c([N+](=O)[O-])c1 | 4 (≈ 6.69 µM) | 8 (≈ 13.4 µM) | 64 (≈ 107 µM) | 8 (≈ 13.4 µM) | 24 | 14 | 22 | 20
Cc1sc([S-])n[n+]1C(=O)c1ccc(-n2c(-c3ccccc3)nc3ccccc3c2=O)cc1 | 16 (≈ 35 µM) | 32 (≈ 70.1 µM) | 8 (≈ 17.5 µM) | 1 (≈ 2.19 µM) | 18 | 22 | 17 | 28
O=C(c1ccc(Nc2nc(-c3ccccc3)nc3ccccc23)cc1)[n+]1nc([S-])sc1-c1ccc(Cl)c([N+](=O)[O-])c1 | 8 (≈ 13.4 µM) | 32 (≈ 53.6 µM) | 16 (≈ 26.8 µM) | 8 (≈ 13.4 µM) | 22 | 19 | 15 | 20
O=C(c1ccc(-n2c(-c3ccccc3)nc3ccccc3c2=O)cc1)[n+]1nc([S-])sc1-c1ccccc1 | 8 (≈ 15.4 µM) | 2 (≈ 3.86 µM) | 2 (≈ 3.86 µM) | 4 (≈ 7.71 µM) | 22 | 25 | 28 | 24
COc1ccc(-c2sc([S-])n[n+]2C(=O)c2ccc(Nc3nc(-c4ccccc4)nc4ccccc34)cc2)cc1[N+](=O)[O-] | 8 (≈ 13.5 µM) | 4 (≈ 6.75 µM) | 4 (≈ 6.75 µM) | 8 (≈ 13.5 µM) | 22 | 24 | 23 | 22
